Calls of active or inactive are those of the source. Unless noted, no cut-off for these calls is given here.
Tests used:
[1] = biological target: T1, Polyadenylate-binding protein 1 (Homo sapiens, UniProt P11940); experiment: PABP inhibition in translation initiation, SAR follow-up (AID 435018); format: functional
[2] = biological target: T2, Eukaryotic translation initiation factor 4H (Homo sapiens, UniProt Q15056); experiment: eIF4H inhibition in translation initiation, SAR follow-up (AID 435011); format: functional
[3] = biological target: DNA dC->dU-editing enzyme APOBEC-3A (Homo sapiens, UniProt P31941); experiment: Dose Response confirmation of small molecule APOBEC3A DNA Deaminase Inhibitors via a fluorescence-based single-stranded DNA deaminase assay. [Related pubchem assays (depositor defined):AID493011, AID493024]; format: functional
[4] = biological target: T1, Polyadenylate-binding protein 1; experiment: PABP poly(A) RNA binding inhibitors, primary screen, biochemical, fluorescence polarization, uHTS (AID 2014)
[5] = biological target: T2, Eukaryotic translation initiation factor 4H; experiment: human eIF4H binding inhibitors, primary screen, translation initiation inhibitor project, biochemical, uHTS, fluorescence polarization (AID 2012)
[6] = biological target: DNA dC->dU-editing enzyme APOBEC-3G (Homo sapiens, UniProt Q9HC16); format: functional;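 note: Dose-response counterscreen measuring inhibition of APOBEC3G DNA deaminase activity, run while confirming APOBEC3A inhibitors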
[7] = biological target: T3, Eukaryotic translation initiation factor 2-alpha kinase 3 (Homo sapiens, UniProt Q9NZJ5); experiment: Counterscreen assay for PERK inhibitors: Dose response cell-based high throughput screening assay to measure inhibition of PERK at 6 hours. [Related pubchem assays: 1522, 1416 ]; format: functional
[8] = biological target: T3, Eukaryotic translation initiation factor 2-alpha kinase 3; experiment: Dose response cell-based high-throughput screening assay to measure PERK inhibition. [Related pubchem assays: 1416 ]; format: functional
Importin subunit alpha-1 = Importin subunit alpha-1 (Homo sapiens, UniProt P52292); experiment: YIC FRET probe signal interference, dose response, counter-screen for RanGTP-importin-beta inhibitor project, biochemical, dry powder samples (AID 493094); format: functional
[9] = biological target: Cystic fibrosis transmembrane conductance regulator/Golgi-associated PDZ and coiled-coil motif-containing protein (Homo sapiens, UniProt P13569+Q9HD26); experiment: CAL PDZ peptide-binding inhibitors, dose response, biochemical, fluorescence polarization, Cerulean-tagged CAL PDZ, cherry-picks (AID 504773)
[10] = inhibitors of firefly luciferase expression or activity, dose response, H4 neuroglioma cells, luminescence (AID 1990); format: functional, cell-based
[11] = inhibitors of SNCA 5'UTR-driven reporter translation, confirmation, H4 neuroglioma cells, luminescence (AID 1988); format: functional, cell-based
[12] = Luminescence Cell-Based Dose Response HTS to Identify Inhibitors of 5'UTR Stem-Loop Driven Prion Protein mRNA Translation in H4 Neuroglioblastoma Cells. [Related pubchem assays: 1827 (Project Summary), 1813 (Primary HTS)]; format: functional
Mucolipin-3 [13] = biological target: T4, Mucolipin-3 (Homo sapiens, UniProt Q8TDD5); experiment: TRPML3 and TRPML2 channel agonists, cell-based, patch clamp, Fura-2 profiling panel, panel member TRPML3 Dose Response (AID 2116)
T4 sequence (Q8TDD5 whole entry): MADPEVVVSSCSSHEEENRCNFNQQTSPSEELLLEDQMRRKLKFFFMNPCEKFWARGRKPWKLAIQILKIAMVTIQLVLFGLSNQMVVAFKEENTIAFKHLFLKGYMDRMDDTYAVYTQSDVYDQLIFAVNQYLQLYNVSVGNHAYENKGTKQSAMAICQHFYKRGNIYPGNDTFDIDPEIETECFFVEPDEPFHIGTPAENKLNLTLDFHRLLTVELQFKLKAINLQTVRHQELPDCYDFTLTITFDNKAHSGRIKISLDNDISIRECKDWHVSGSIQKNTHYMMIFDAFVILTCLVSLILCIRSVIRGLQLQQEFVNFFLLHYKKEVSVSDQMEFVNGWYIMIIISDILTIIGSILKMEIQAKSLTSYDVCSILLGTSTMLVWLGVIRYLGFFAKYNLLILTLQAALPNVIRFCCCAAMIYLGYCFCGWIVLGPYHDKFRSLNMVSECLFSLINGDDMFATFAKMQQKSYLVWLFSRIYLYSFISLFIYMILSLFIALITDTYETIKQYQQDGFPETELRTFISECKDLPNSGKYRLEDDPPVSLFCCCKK

Mucolipin-3 [14] = biological target: T4, Mucolipin-3; experiment: Dose response cell-based high-throughput screening assay for agonists of the transient receptor potential channel ML3 (TRPML3). [Related pubchem assays: 1526, 1424, 1448 ]; format: functional
[15] = cytotoxicity in HEK-293T cells, dose response, cytotoxicity control for TCR NF-kB inhibitor project, luminescence, T-cell screen hits (AID 489026); format: functional, cell-based;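 note: cells exposed to compound about 14 hours before the viability readout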
Ion channel NompC [16] = biological target: T5, Ion channel NompC (Danio rerio, UniProt Q7T1G6); experiment: TRPML3 and TRPML2 channel agonists, cell-based, patch clamp, Fura-2 profiling panel, panel member TRPN1 Dose Response (AID 2116)
Ion channel NompC [17] = biological target: T5, Ion channel NompC; experiment: Fluorescence counterscreen assay for TRPML3 agonists: dose response cell-based high-throughput screening assay to identify agonists of the transient receptor potential channel N1 (TRPN1). [Related pubchem assays: 1526, 1424, 1448 ]; format: functional
cells = format: functional, cell-based; settings: PPC-1
MDA-MB-435 = experiment: cells; format: functional, cell-based; settings: Homo sapiens

T5 sequence (Q7T1G6 whole entry): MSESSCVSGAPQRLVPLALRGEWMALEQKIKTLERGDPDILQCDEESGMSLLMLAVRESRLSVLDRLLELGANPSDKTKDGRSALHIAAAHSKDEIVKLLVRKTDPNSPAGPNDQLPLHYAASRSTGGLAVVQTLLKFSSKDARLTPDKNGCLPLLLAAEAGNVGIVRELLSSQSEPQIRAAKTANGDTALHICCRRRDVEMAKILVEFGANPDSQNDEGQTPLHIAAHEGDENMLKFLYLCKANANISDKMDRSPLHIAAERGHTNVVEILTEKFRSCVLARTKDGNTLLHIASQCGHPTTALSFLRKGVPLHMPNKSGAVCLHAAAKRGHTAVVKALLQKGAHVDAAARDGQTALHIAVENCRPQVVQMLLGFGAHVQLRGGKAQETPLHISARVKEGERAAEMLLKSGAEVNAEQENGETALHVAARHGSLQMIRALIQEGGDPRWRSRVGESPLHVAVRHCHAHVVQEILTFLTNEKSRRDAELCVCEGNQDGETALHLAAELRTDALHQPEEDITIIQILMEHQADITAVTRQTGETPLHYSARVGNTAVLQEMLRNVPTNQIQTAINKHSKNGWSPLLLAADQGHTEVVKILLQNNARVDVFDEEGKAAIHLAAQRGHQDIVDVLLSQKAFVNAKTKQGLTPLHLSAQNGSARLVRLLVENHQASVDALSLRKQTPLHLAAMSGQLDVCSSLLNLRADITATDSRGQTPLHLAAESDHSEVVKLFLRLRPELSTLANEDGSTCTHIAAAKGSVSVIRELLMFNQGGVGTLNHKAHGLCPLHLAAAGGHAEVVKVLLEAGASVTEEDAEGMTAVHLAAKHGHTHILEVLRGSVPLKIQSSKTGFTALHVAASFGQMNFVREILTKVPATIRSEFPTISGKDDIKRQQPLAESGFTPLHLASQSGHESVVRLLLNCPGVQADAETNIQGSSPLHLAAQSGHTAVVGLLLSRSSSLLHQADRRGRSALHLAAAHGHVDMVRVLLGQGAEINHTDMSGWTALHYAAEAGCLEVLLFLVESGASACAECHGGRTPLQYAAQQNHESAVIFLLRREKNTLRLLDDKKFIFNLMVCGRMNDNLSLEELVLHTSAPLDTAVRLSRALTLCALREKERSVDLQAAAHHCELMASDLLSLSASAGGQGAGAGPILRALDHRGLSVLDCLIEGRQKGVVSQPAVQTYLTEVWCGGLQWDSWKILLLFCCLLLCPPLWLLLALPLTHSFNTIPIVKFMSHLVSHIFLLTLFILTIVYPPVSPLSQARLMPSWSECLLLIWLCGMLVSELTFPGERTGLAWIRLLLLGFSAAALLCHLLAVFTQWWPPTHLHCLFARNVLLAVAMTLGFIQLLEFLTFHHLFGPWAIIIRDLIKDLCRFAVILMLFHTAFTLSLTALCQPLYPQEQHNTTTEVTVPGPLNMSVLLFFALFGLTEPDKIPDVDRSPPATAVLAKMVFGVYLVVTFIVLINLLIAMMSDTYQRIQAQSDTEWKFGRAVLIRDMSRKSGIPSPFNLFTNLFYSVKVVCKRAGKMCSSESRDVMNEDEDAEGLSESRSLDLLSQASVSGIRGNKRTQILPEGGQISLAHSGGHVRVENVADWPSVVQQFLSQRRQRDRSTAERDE
T3 sequence (Q9NZJ5 whole entry): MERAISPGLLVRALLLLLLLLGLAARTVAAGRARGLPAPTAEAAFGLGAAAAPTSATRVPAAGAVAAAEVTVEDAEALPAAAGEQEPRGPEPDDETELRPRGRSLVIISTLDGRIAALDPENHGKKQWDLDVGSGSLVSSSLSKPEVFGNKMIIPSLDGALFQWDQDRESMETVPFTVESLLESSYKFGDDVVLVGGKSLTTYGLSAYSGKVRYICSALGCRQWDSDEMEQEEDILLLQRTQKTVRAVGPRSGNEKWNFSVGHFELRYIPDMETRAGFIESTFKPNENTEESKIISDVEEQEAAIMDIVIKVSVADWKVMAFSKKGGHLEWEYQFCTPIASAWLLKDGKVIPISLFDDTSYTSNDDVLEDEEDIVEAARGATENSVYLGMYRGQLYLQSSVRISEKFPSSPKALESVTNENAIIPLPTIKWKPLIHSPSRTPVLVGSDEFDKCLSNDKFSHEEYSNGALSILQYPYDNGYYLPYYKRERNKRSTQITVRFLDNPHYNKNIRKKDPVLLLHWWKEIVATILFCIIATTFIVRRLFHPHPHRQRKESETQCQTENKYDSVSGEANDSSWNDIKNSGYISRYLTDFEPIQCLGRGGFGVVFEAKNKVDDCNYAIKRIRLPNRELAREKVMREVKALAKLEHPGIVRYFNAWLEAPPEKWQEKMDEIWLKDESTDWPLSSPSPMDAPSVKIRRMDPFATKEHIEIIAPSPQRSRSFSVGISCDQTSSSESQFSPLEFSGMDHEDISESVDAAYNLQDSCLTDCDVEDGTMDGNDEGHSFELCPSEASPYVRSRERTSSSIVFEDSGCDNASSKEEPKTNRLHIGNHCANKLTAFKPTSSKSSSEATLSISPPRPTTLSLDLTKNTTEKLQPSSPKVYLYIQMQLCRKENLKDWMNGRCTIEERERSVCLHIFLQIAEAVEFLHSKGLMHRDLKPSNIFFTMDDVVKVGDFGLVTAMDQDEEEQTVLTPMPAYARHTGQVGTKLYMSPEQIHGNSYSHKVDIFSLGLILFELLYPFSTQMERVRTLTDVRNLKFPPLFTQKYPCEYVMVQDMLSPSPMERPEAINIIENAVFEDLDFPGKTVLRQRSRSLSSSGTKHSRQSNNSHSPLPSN
T1 sequence (P11940 whole entry): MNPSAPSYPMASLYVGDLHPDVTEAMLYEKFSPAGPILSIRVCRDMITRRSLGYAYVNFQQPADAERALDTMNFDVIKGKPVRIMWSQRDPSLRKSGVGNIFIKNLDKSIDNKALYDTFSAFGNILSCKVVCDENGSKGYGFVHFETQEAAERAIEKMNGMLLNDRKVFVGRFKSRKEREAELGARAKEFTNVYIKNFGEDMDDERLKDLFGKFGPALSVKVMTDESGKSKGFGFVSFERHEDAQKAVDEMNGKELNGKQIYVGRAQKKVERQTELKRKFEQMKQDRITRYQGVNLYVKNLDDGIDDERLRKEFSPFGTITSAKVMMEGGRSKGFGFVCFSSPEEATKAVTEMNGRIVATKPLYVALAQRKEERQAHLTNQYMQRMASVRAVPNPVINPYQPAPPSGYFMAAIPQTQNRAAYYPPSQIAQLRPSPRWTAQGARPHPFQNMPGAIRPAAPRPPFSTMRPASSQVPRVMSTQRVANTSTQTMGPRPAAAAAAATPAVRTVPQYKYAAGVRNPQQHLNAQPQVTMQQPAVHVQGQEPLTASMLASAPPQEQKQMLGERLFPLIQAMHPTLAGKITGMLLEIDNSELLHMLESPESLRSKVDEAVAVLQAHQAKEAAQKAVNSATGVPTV
Chain of DNA dC->dU-editing enzyme APOBEC-3A (P31941 whole entry): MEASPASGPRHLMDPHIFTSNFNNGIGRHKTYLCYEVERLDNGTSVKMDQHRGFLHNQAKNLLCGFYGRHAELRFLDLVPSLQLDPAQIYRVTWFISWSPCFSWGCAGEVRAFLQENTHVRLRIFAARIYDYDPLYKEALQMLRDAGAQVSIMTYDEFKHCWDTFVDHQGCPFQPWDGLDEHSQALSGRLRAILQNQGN
Chain of DNA dC->dU-editing enzyme APOBEC-3G (Q9HC16 whole entry): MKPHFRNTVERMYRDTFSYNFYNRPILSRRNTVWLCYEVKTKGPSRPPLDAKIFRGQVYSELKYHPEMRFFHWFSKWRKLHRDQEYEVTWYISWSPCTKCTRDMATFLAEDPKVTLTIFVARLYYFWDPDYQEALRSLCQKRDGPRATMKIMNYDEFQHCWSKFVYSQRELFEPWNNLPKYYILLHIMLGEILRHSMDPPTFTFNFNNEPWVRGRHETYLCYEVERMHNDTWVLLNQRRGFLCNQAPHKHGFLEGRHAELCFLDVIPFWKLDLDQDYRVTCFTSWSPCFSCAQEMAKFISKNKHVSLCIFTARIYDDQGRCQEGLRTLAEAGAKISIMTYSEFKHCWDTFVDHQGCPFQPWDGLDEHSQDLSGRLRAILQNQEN

## COc1cc(/C=N/NC(=O)c2ccccc2O)ccc1OCC(=O)Nc1ccc([N+](=O)[O-])cc1
[1]
  IC50: > 100 µM (inactive)
[2]
  IC50: > 100 µM (inactive)

## COc1cccc(NC(=O)c2ccc[n+](C)c2)c1
[3]
  IC50: 2.33 µM (active)
[4]
  IC50: 4.86 µM (active)
[5]
  IC50: > 100 µM (inactive)
[6]
  IC50: 2.22 µM (active)

## COC(=O)c1ccc(OCCOc2ccc(C(=O)OC)cc2)cc1
[7]
  EC50: > 55.7 µM (not active)
[8]
  EC50: > 55.7 µM (not active)

## Cc1cccc(C)c1NC(=O)C1C(=O)c2sccc2N(C)S1(=O)=O (stereo not given)
Importin subunit alpha-1
  AC50: 273 µM (active)

## O=C1C=C(c2ccccc2)C(c2ccccc2)C1 (stereo not given)
[9]
  AC50: 17 µM (active)

## Cc1ccc(S(=O)(=O)Nc2ccccc2-c2ccccc2)cc1
[10]
  EC50: > 120 µM (not active)
[11]
  EC50: 11.2 µM (active)
[12]
  EC50: > 120 µM (not active)
Mucolipin-3 [13]
  EC50: 2.14 µM (active)
Mucolipin-3 [14]
  EC50: 1.59 µM (active)
[15]
  IC50: 79.9 µM (inactive)
Ion channel NompC [16]
  EC50: > 29.9 µM (inactive)
Ion channel NompC [17]
  EC50: > 29.9 µM (not active)

## CCSc1nc(O)cc(-c2ccccc2)n1
cells
  IC50: > 10 µM (inactive)
MDA-MB-435
  IC50: > 10 µM (inactive)
